From US8962891B2, “Synthetic analogs of sphingolipids” (Hadasit Medical Research Services & Development Limited, priority 2007, dated 2015) come the findings set out here.

Experiment [1] relates to HL-60. Kind of experiment: IC50 in cancer cell lines (Table 1), HL-60. Format: cell-based. As to conditions: Homo sapiens; HL-60 (Promyelocytic leukemia), incubation 24 hours, FCS no, 0.1 × 10^6/ml plated cells.
The test system of experiment [2] is Pancreas tumor cells. The experiment is described as follows: Pancreas tumor cell viability after combined treatment (MTT test). The experiment is classed as cell-based. As to conditions: 24 h; for cell viability (MTT), combination of AD2730 and ADYZ197: 2 μM AD2730 combined with 10 μM ADYZ197. Here is the method:
FIG. 3A-3B: The viability of pancreatic cells using different drug combination for 24, h (MTT test)
The inventors next examined the effect of combining the compound of the invention with known chemotherapeutic drugs. Pancreas tumor cells were incubated with 1 μM taxol and 2 μM AD2750, (separately and in combination). The results are shown in the left part of the graph, in FIG. 3A, as percent of viable cells (checked by MTT). A combination of 20 μM fluorouracil and 8 μM AD2750 is shown in the right part of the graph, in FIG. 3A.
The inventors next examined the potential anti-cancerous effect of other compounds of Formula II. Therefore, pancreas tumor cells were incubated with 2 μM AD2730 and 10 μM ADYZ197, separately and in combination. The results are presented in the left part of the graph, in FIG. 3B, as percent of viable cells (checked by MTT).
A general note: Tetrazolium assays rely on reduction of a dye to a coloured formazan, in cell work by metabolically active cells.

Experiment [3] deals with CRL-5891. The experiment is described as follows: IC50 in cancer cell lines (Table 1), CRL-5891. The experiment is classed as cell-based. As to conditions: CRL-5891 (NSCLC, Lung carcinoma), incubation 24 hours, FCS no, 0.1 × 10^6/ml plated cells.
Experiment [4] deals with MEL624. The experiment is described as follows: IC50 in cancer cell lines (Table 1), MEL624. The experiment is classed as cell-based. As to conditions: MEL624 (Melanoma), incubation 24 hours, FCS yes, 0.1 × 10^6/ml plated cells.
Experiment [5] deals with Du-145. The experiment is described as follows: IC50 in cancer cell lines (Table 1), Du-145. The experiment is classed as cell-based. As to conditions: Homo sapiens, Du-145 (Prostate).
Experiment [6] relates to LNCaP. Kind of experiment: IC50 in cancer cell lines (Table 1), LNCaP. Format: cell-based. The conditions noted are these: Homo sapiens, LNCaP (Prostate).
In experiment [7] the test system is CRL-1687. The experiment is described as follows: IC50 in cancer cell lines (Table 1), CRL-1687. The experiment is classed as cell-based. As to conditions: CRL-1687 (Pancreas), incubation 24 hours, FCS yes, 0.2*10^6/ml plated cells.
Experiment [8] deals with CRL-1976. Kind of experiment: IC50 in cancer cell lines (Table 1), CRL-1976. The experiment is classed as cell-based. The conditions noted are these: CRL-1976 (Sarcoma), incubation 24 hours, FCS yes, 0.2*10^6/ml plated cells.
For experiment [9], the system named is CRL-5803. Kind of experiment: IC50 in cancer cell lines (Table 1), CRL-5803. Format: cell-based. As to conditions: CRL-5803 (NSCLC, Lung carcinoma), incubation 24 hours, FCS yes, 0.1 × 10^6/ml plated cells.
The subject of experiment [10] is PC-3. Kind of experiment: IC50 in cancer cell lines (Table 1), PC-3. The conditions noted are these: Homo sapiens, PC-3 (Prostate). Format: cell-based.
The test system of experiment [11] is MDA-MB-435 cells. The experiment is described as follows: MDA-MB-435 survival experiment in nude mice. The conditions noted are these: CD1-nude mice injected iv with 3×10^6 MDA-MB-435 cells; 20 mg/kg in the drinking water beginning day 1; to day 100. The experiment is classed as in vivo. The procedure:
CD1-nude mice were injected iv with 3×10^6 MDA-MB-435 cells, which are usually considered as metastatic human breast cancer, but recently are also considered as model cells for melanoma. The mice were treated with AD2750, 20 mg/kg in the drinking water beginning day 1. On day 100, the remaining mice were sacrificed, and the pathology was determined.

In experiment [12] the test system is BxPC-3 tumor. The experiment is described as follows: BxPC-3 human pancreatic tumor xenograft efficacy study. The experiment is classed as in vivo. The conditions noted are these: BxPC-3 s.c. in athymic NCr-nu/nu mice. The source says:
BxPC-3 Human Pancreatic Tumor Model
Thirty-to-forty mg tumor fragments of BxPC-3 tumor from a continuous in vivo passage were implanted subcutaneously (sc) into athymic NCr-nu/nu mice using 12-gauge trocar needles.
Animals were purchased from NCI-approved animal facilities (4-5 weeks old) and acclimated in the laboratories one week prior to experimentation. The animals were housed in microisolator cages in a 12-hour light/dark cycle. Animals received filter-sterilized water and sterile rodent food ad libitum. Cages were changed a minimum of twice weekly. The animals were weighed twice weekly and observed daily (for about sixty days of experiment) for clinical signs.
Tumor Measurements and Body Weights: Tumors measurements and animal body weights are recorded twice weekly. Tumor volume was determined by caliper measurements (mm) and using the formula for an ellipsoid sphere: Length×Width^2/2=Volume (mm^3)
This commonly used formula is also used to calculate tumor weight, assuming unit density (1 mm^3=1 mg).
Parameters Evaluated: For sc tumors trials, a T-C value based on 1, 2, 3 or 4 tumor volume doubling time (days), as appropriate for the particular trial, was made. This evaluation is based on tumor size of the control animals at the end of the treatment period. A T/C (%) or T/C (%) value was determined. […]
In general terms: A xenograft is tissue or cells of one species grown in another, often human tumour cells in immunodeficient mice.

Experiment [13] has as its system CCL-224. The experiment is described as follows: IC50 in cancer cell lines (Table 1), CCL-224. The conditions noted are these: CCL-224 (Colon), incubation 24 hours, FCS no, 0.2*10^6/ml plated cells. Format: cell-based.
In experiment [14] the test system is pancreas tumor cells (CRL-1687). Kind of experiment: Pancreas tumor (CRL-1687) growth in CD1-nude mice. The experiment is classed as in vivo. As to conditions: 5×10^6 CRL-1687 cells id, 30 mg/kg ip in 10% CE beginning day 1, up to 35 days. The procedure: In order to examine the applicability of the compounds of the invention as an anti-cancerous drug, the inventors next examined the effect of i.p. administration of AD2750, on pancreas tumor. Therefore, CD1-nude mice were injected id with 5×10^6 pancreas tumor cells (CRL-1687). The mice were treated ip, with AD2750, beginning day 1, 30, mg/kg in 0.2 ml 10% CE, for up to 35 days. Tumor size was measured and calculated every 5-7 days beginning day 8.

The mark [15] stands for this setting: incubation 24 hours, FCS yes, 0.1 × 10^6/ml plated cells.
The mark [16] stands for this setting: incubation 24 hours, FCS no, 0.1 × 10^6/ml plated cells.
The mark [17] stands for this setting: incubation 48 hours, FCS yes, 0.1 × 10^6/ml plated cells.
Setting [18] is: incubation 72 hours, FCS yes, 0.05 × 10^6/ml plated cells.

On to `CCCCCCCCCCCCCCCCCCNC(CO)(CO)CO` [ADYZ197, 2-(octadecylamino)-2-(hydroxymethyl)propane-1,3-diol], for which the IC50 in experiment [1] came to 15 µM; in experiment [3] it was 10 µM; in [4], 3 µM; in experiment [5] (setting [15]), 7.5 µM; in experiment [6] (setting [16]), 42.9 µM; in [6] (setting [17]) it was 23.9 µM. Further, the IC50 was determined as 3 µM in experiment [6] (incubation 72 hours, FCS yes, 0.5 × 10^6/ml plated cells); 22 µM in experiment [7]; 20 µM in experiment [8]; 20 µM in experiment [9]; 8.2 µM in experiment [10] (setting [17]); 4.4 µM in [10] (setting [18]). For the same molecule, in [2], the “cell viability (MTT), combination of AD2730 and ADYZ197” value is recorded as “significant synergistic effect on reduction of cell viability”. Further, the “tumor cell viability (MTT), combination with fluorouracil” value in experiment [2] (10 μM ADYZ197 combined with 20 μM fluorouracil) is “significant reduction of tumor cell viability”.

For `CCCCNC(CO)C(O)c1ccccc1` (centres unmarked) [AD2730, 2-(butylamino)-1-phenylpropane-1,3-diol], the “cell viability (MTT), combination of AD2730 and ADYZ197” value in [2] was “significant synergistic effect on reduction of cell viability”.

For `CCCCCCCCCCCCCCNC(CO)CO` [AD2750, 2-(tetradecylamino)propane-1,3-diol], the “survival of treated animals” value in experiment [11] is recorded as “increased survival”. The tumor incidence result in experiment [11] is reported as “significantly reduced tumor incidence”. Further, the “tumor cell viability (MTT), combination with Taxol” value in [2] (2 μM AD2750 combined with 1 μM taxol) is on record as “markedly reduced tumor cell viability”. Moreover, the “tumor cell viability (MTT), combination with fluorouracil” value in experiment [2] (8 μM AD2750 combined with 20 μM fluorouracil) is given as “markedly reduced tumor cell viability”. The “tumor volume, monotherapy” value in experiment [12] (20 or 30 mg/kg i.p. daily for 28 days, vs vehicle) was “clearly reduced tumor volume in a dose dependent manner”. Moreover, the “tumor volume, combination with Camptosar” value in [12] (AD2750 20 or 30 mg/kg with Camptosar 60 or 30 mg/kg i.p. for 28 days) is recorded as “significant reduction in tumor volume”. Also, the 50% inhibitory concentration (IC50) amounted to 8 µM in [3]; 9 µM in experiment [4]; 3.3 µM in experiment [5] (setting [16]); 7.5 µM in experiment [5] (setting [18]); 4.9 µM in [6] (LNCaP, 24 h, incubation 24 hours, FCS no, 0.1 × 10^6/ml plated cells); 15.2 µM in experiment [6] (LNCaP, 24 h, incubation 24 hours, FCS yes, 0.1 × 10^6/ml plated cells). Further, the 50% inhibitory concentration (IC50) in [6] (LNCaP, 48 h, incubation 48 hours, FCS yes, 0.1 × 10^6/ml plated cells) is 8.7 µM; in [6] (LNCaP, 72 h, incubation 72 hours, FCS yes, 0.05 × 10^6/ml plated cells) it was 3.9 µM; in experiment [13], 13 µM; in experiment [7] it was 15 µM; in experiment [8], 5 µM; in experiment [9], 11 µM. The IC50 amounted to 12.2 µM in experiment [10] (setting [15]) and 6.8 µM in experiment [10] (setting [18]). Further, the “reduction in tumor volume” value in experiment [14] is “about 5 folds”.

As for `CCCCCCCCCCNC(CO)(CO)CO` [ADYZ195, 2-(decylamino)-2-(hydroxymethyl)propane-1,3-diol], the IC50 in experiment [5] (setting [16]) and in experiment [10] (setting [16]) was over 50 µM in each case.

What is called IC50 is the point on the concentration scale where inhibition reaches its midpoint. The low end stands for inhibition by little substance, the high end for a need for much substance.
